The numbers were not newly measured in patent publication US9388155B1, “Coumarin derivatives for cancer therapy” (Wellesley College, priority 2013, dated 2016), which cites them from elsewhere.

Molecules are shown by their SMILES.

The data set concerns pancreatic cancer cell line PANC-1. The settings on record: PANC-1, nutrient starvation conditions, within 24 hours.

For `CC(C)(OC(=O)C=Cc1ccc(O)cc1)C1Cc2c(ccc3ccc(=O)oc23)O1` (stereo not shown) [Angelmarin, 11-O-(p-hydroxy-cinnamoyl) columbianetin], the cytotoxicity was 0.01 µg/mL.
